Legend:
Assay type in all cases: functional
Staphylococcus aureus [1] = test: Antimicrobial activity against Staphylococcus aureus clone 2-2 harboring staphylococcal cassette chromosome mec element type 2 assessed as percent susceptible isolates by kirby-bauer method
Staphylococcus aureus [2] = test: Antimicrobial activity against Staphylococcus aureus clone 3-3 harboring staphylococcal cassette chromosome mec element type 6 assessed as percent susceptible isolates by kirby-bauer method
Staphylococcus aureus [3] = test: Antimicrobial activity against Staphylococcus aureus clone 2-2 harboring staphylococcal cassette chromosome mec element type 5 assessed as percent susceptible isolates by kirby-bauer method
Staphylococcus aureus [4] = test: Antimicrobial activity against Staphylococcus aureus clone 2-2 harboring staphylococcal cassette chromosome mec element type 1 assessed as percent susceptible isolates by kirby-bauer method
Staphylococcus aureus [5] = test: Antimicrobial activity against Staphylococcus aureus clone 4-4 harboring staphylococcal cassette chromosome mec element type 2 assessed as percent susceptible isolates by kirby-bauer method
Staphylococcus aureus [6] = test: Antimicrobial activity against Staphylococcus aureus clone 4-4 harboring staphylococcal cassette chromosome mec element type U3 assessed as percent susceptible isolates by kirby-bauer method
Staphylococcus aureus [7] = test: Antimicrobial activity against Staphylococcus aureus clone 4-4 harboring staphylococcal cassette chromosome mec element type 1 assessed as percent susceptible isolates by kirby-bauer method
Staphylococcus aureus [8] = test: Antimicrobial activity against Staphylococcus aureus clone 2-2 harboring staphylococcal cassette chromosome mec element type U3 assessed as percent susceptible isolates by kirby-bauer method
Staphylococcus aureus [9] = test: Antimicrobial activity against Staphylococcus aureus clone 3-3 harboring staphylococcal cassette chromosome mec element type 1 assessed as percent susceptible isolates by kirby-bauer method
Staphylococcus aureus [10] = test: Antimicrobial activity against Staphylococcus aureus clone 4-4 harboring staphylococcal cassette chromosome mec element type 5 assessed as percent susceptible isolates by kirby-bauer method
Staphylococcus aureus [11] = test: Antimicrobial activity against Staphylococcus aureus clone 2-2 harboring staphylococcal cassette chromosome mec element type 4 assessed as percent susceptible isolates by kirby-bauer method
Staphylococcus aureus [12] = test: Antimicrobial activity against Staphylococcus aureus clone 2-2 harboring staphylococcal cassette chromosome mec element type U5 assessed as percent susceptible isolates by kirby-bauer method
Staphylococcus aureus [13] = test: Antimicrobial activity against Staphylococcus aureus clone 1-1 harboring staphylococcal cassette chromosome mec element type U assessed as percent susceptible isolates by kirby-bauer method
Staphylococcus aureus [14] = test: Antimicrobial activity against Staphylococcus aureus clone 4-4 harboring staphylococcal cassette chromosome mec element type 4 assessed as percent susceptible isolates by kirby-bauer method
Staphylococcus aureus [15] = test: Antimicrobial activity against Staphylococcus aureus clone 1-1 harboring staphylococcal cassette chromosome mec element type 4 assessed as percent susceptible isolates by kirby-bauer method
Staphylococcus aureus [16] = test: Antimicrobial activity against Staphylococcus aureus clone 3-3 harboring staphylococcal cassette chromosome mec element type 2 assessed as percent susceptible isolates by kirby-bauer method
Staphylococcus aureus [17] = test: Antimicrobial activity against Staphylococcus aureus clone 3-3 harboring staphylococcal cassette chromosome mec element type 4 assessed as percent susceptible isolates by kirby-bauer method
Staphylococcus aureus [18] = test: Antimicrobial activity against Staphylococcus aureus clone 1-1 harboring staphylococcal cassette chromosome mec element type 5 assessed as percent susceptible isolates by kirby-bauer method
Staphylococcus aureus [19] = test: Antimicrobial activity against Staphylococcus aureus clone 2-2 harboring staphylococcal cassette chromosome mec element type 6 assessed as percent susceptible isolates by kirby-bauer method
Staphylococcus aureus [20] = test: Antimicrobial activity against Staphylococcus aureus clone 3-3 harboring staphylococcal cassette chromosome mec element type U6 assessed as percent susceptible isolates by kirby-bauer method
Staphylococcus aureus [21] = test: Antimicrobial activity against Staphylococcus aureus clone 3-3 harboring staphylococcal cassette chromosome mec element type U1 assessed as percent susceptible isolates by kirby-bauer method
Staphylococcus aureus [22] = test: Antimicrobial activity against Staphylococcus aureus clone 3-3 harboring staphylococcal cassette chromosome mec element type U8 assessed as percent susceptible isolates by kirby-bauer method

Compound	Activity (Staphylococcus aureus [1]) [%]	Activity (Staphylococcus aureus [2]) [%]	Activity (Staphylococcus aureus [3]) [%]	Activity (Staphylococcus aureus [4]) [%]	Activity (Staphylococcus aureus [5]) [%]	Activity (Staphylococcus aureus [6]) [%]	Activity (Staphylococcus aureus [7]) [%]	Activity (Staphylococcus aureus [8]) [%]	Activity (Staphylococcus aureus [9]) [%]	Activity (Staphylococcus aureus [10]) [%]	Activity (Staphylococcus aureus [11]) [%]	Activity (Staphylococcus aureus [12]) [%]	Activity (Staphylococcus aureus [13]) [%]	Activity (Staphylococcus aureus [15]) [%]	Activity (Staphylococcus aureus [17]) [%]	Activity (Staphylococcus aureus [18]) [%]	Activity (Staphylococcus aureus [19]) [%]	Activity (Staphylococcus aureus [20]) [%]	Activity (Staphylococcus aureus [21]) [%]	Activity (Staphylococcus aureus [22]) [%]	further results
CO/N=C(\C(=O)N[C@@H]1C(=O)N2C(C(=O)O)=C(CSc3nc(=O)c(O)nn3C)CS[C@H]12)c1csc(N)n1 [CEFTRIAXONE]	0	0	11	11	0	0	0	0	0	0	0	0	0	2	0	0	0	0	0		Activity (Staphylococcus aureus [14]): 0%; Activity (Staphylococcus aureus [16]): 0%
CCC[C@@H]1C[C@@H](C(=O)N[C@@H]([C@H]2O[C@H](SC)[C@H](O)[C@@H](O)[C@H]2O)[C@H](C)Cl)N(C)C1 [CLINDAMYCIN]	38	100	89	89	0	100	1	100	0	100	56	100	100	98	79	100	100	50	100	95	
CC[C@H]1OC(=O)[C@H](C)[C@@H](O[C@H]2C[C@@](C)(OC)[C@@H](O)[C@H](C)O2)[C@H](C)[C@@H](O[C@@H]2O[C@H](C)C[C@H](N(C)C)[C@H]2O)[C@](C)(O)C[C@@H](C)C(=O)[C@H](C)[C@@H](O)[C@]1(C)O [ERYTHROMYCIN]	1	100	89	67	0	0	1	100	0	100	39	0	100	98		100		50	100	98	
CC(=O)O[C@H]1C[C@@]2(C)[C@@H](C[C@@H](O)[C@H]3[C@@]4(C)CC[C@@H](O)[C@@H](C)[C@@H]4CC[C@@]32C)/C1=C(\CCC=C(C)C)C(=O)O [FUSIDIC ACID]	98	0	100	0	100	100	99	100	0	50	100	100	0	83	96	100	100	50		100	Activity (Staphylococcus aureus [14]): 100%
CO[C@H]1/C=C/O[C@@]2(C)Oc3c(C)c(O)c4c(O)c(c(/C=N/N5CCN(C)CC5)c(O)c4c3C2=O)NC(=O)/C(C)=C\C=C\[C@H](C)[C@H](O)[C@@H](C)[C@@H](O)[C@@H](C)[C@H](OC(C)=O)[C@@H]1C [RIFAMPIN]	100	100	100	100	100	100	96	100	100	100	94	100	100	100	100	100	100	100	100	100	Activity (Staphylococcus aureus [14]): 100%; Activity (Staphylococcus aureus [16]): 100%
GENTAMICIN	100	100	0	100	3	100	95	100	97	100	94	100	100	98	100	100	100	100	100	100	Activity (Staphylococcus aureus [14]): 100%; Activity (Staphylococcus aureus [16]): 100%

From ChEMBL document CHEMBL1687786, “Diversity of staphylococcal cassette chromosome mec elements in predominant methicillin-resistant Staphylococcus aureus clones in a small geographic area” (2010)
